The results in this text go back to PMC6063448, “Antimicrobial activity of linear lipopeptides derived from BP100 towards plant pathogens” (PLoS ONE, 2018).

One may read the MIC as the lowest concentration that inhibits growth of the organism.

Type in all cases: cell-based
The test system of test [1] is Pseudomonas syringae pv. actinidiae Psa3700.1.1. Briefly: MIC, growth inhibition in microtiter plates (TSB). The following applies: Psa, 25°C, 48 h, OD 600 nm, lowest concentration with no growth, given as interval of tested concentrations, three replicates, experiment repeated twice. From the text:
(§1) The following plant pathogenic bacterial strains were used: Erwinia amylovora PMV6076 (Institut National de la Recherche Agronomique, Angers, France), Pseudomonas syringae pv. syringae EPS94 (Institut de Tecnologia Agroalimentària, Universitat de Girona, Spain), Xanthomonas axonopodis pv. vesicatoria 2133–2, Pseudomonas syringae pv. actinidiae Psa3700.1.1, Xanthomonas fragariae Xf349-9A (Instituto Valenciano de Investigaciones Agrarias, Valencia, Spain), and Xanthomonas arboricola pv. pruni CFBP5563 (Collection Française de Bactéries associées aux Plantes, Angers, France). All bacteria except for X. fragariae were stored in Luria Bertani (LB) broth supplemented with glycerol (20%) and maintained at -80°C. For X. fragariae, Medium B [46] was used instead of LB. E. amylovora, X. arboricola pv. pruni, P. syringae pv. syringae and P. syringae pv. actinidiae were scrapped from the agar media after growing for 24 h at 25°C, and X. axonopodis pv. vesicatoria and X. fragariae after growing for 48 h at 25°C. The cell material was suspended in sterile water to obtain a suspension of 10^8 CFU mL^-1.
(§2) Lyophilized peptides were solubilized in sterile Milli-Q water to a final concentration of 1 mM and filter sterilized through a 0.22-μm pore filter. […] For antibacterial activity 20 μL of each dilution were mixed in a microtiter plate well with 20 μL of the corresponding suspension of the bacterial indicator, 160 μL of Trypticase Soy Broth (TSB) (BioMèrieux, France) to a total volume of 200 μL. For antifungal activity 20 μL of each stock solution were mixed in a microtiter plate well with 80 μL of the corresponding suspension of the fungal pathogen and 100 μL of double concentrated Potato Dextrose Broth (PDB) to a total volume of 200 μL containing 0.003% w/v of chloramphenicol to prevent bacterial contamination.
(§3) Three replicates for each combination of strain, compound and concentration were used. Microbial growth was determined by optical density measurement at 600 nm (Bioscreen C, Labsystem, Helsinki, Finland). For antibacterial activity microplates were incubated at 25°C with 20 s shaking before hourly absorbance measurement for 48 h. For antifungal activity microplates were incubated at 22°C with 1 min shaking before absorbance measurement that were done every two hours during seven days. The experiment was repeated twice. The MIC was taken as the lowest compound concentration with no growth at the end of the experiment.

Test [2] has as its system Pseudomonas syringae pv. syringae EPS94. Put plainly: MIC, growth inhibition in microtiter plates (TSB). To be noted: Pss, 25°C, 48 h, OD 600 nm, lowest concentration with no growth, given as interval of tested concentrations, three replicates, experiment repeated twice.
Source text: as §1, §2, §3

Test [3] relates to Erwinia amylovora PMV6076. Briefly: MIC, growth inhibition in microtiter plates (TSB). The following applies: Ea, 25°C, 48 h, OD 600 nm, lowest concentration with no growth, given as interval of tested concentrations, three replicates, experiment repeated twice.
Source text: as §1, §2, §3

The subject of test [4] is Xanthomonas arboricola pv. pruni CFBP5563. Put plainly: MIC, growth inhibition in microtiter plates (TSB). To be noted: Xap, 25°C, 48 h, OD 600 nm, lowest concentration with no growth, given as interval of tested concentrations, three replicates, experiment repeated twice.
Source text: as §1, §2, §3

In test [5] the test system is Xanthomonas axonopodis pv. vesicatoria 2133–2. Put plainly: MIC, growth inhibition in microtiter plates (TSB). The following applies: Xav, 25°C, 48 h, OD 600 nm, lowest concentration with no growth, given as interval of tested concentrations, three replicates, experiment repeated twice.
Source text: as §1, §2, §3

The subject of test [6] is Xanthomonas fragariae Xf349-9A. Briefly: MIC, growth inhibition in microtiter plates (TSB). The following applies: Xf, 25°C, 48 h, OD 600 nm, lowest concentration with no growth, given as interval of tested concentrations, three replicates, experiment repeated twice.
Source text: as §1, §2, §3

The test system of test [7] is Fusarium oxysporum f. sp. lycopersici FOL 3 race 2. Briefly: MIC, antifungal growth inhibition in microtiter plates (PDB). To be noted: Fo, 22°C, seven days, OD 600 nm, lowest concentration with no growth, given as interval of tested concentrations, three replicates, experiment repeated twice. How it is done:
(§4) The following plant pathogenic fungal strains were used: Penicillium expansum EPS26 (Institut de Tecnologia Agroalimentària, Universitat de Girona, Spain) and Fusarium oxysporum f. sp. lycopersici FOL 3 race 2 (ATCC 201829, American Type Culture Collection,Virginia, EEUU). Strains were cultured on potato dextrose agar (PDA) plates (Difco). Conidia from P. expansum and microconidia from F. oxysporum were obtained from 5–7 day-old agar Potato Dextrose (PDA) cultures after growth at 25°C. Inoculum was prepared by scraping spore material from culture surfaces with a cotton swab and resuspending it in distilled water containing 0.5‰ of tween 80. The suspensions were filtered through Miracloth (Merk, Millipore) and the concentration of conidia was determined using a hemacytometer and adjusted to 10^4 conidia mL^-1 for F. oxysporum and to 10^3 conidia mL^-1 for P. expansum.
as §2, §3

In test [8] the test system is Penicillium expansum EPS26. The description is as above. To be noted: Pe, 22°C, seven days, OD 600 nm, lowest concentration with no growth, given as interval of tested concentrations, three replicates, experiment repeated twice. As for the experimental part:
as §4, §2, §3

For the molecule `CCCCCCCCCCCC(=O)N[C@@H](CCCCN)C(=O)N[C@@H](CCCCN)C(=O)N[C@@H](CC(C)C)C(=O)N[C@@H](Cc1ccccc1)C(=O)N[C@@H](CCCCN)C(=O)N[C@@H](CCCCN)C(=O)N[C@H](C(=O)N[C@@H](CC(C)C)C(=O)N[C@@H](CCCCN)C(=O)N[C@@H](Cc1ccc(O)cc1)C(=O)N[C@@H](CC(C)C)C(N)=O)[C@@H](C)CC` [BP391, C11H23CO-KKLFKKILKYL-NH2], the MIC in test [1] is above 25 µM; in test [2] it was above 25 µM; in test [3], above 25 µM; in test [4] it was 6.2 to 12.5 µM; in test [5] it was 6.2 to 12.5 µM; in test [6], 3.1 to 6.2 µM. For the same molecule, the MIC in test [7] was 12.5 to 25 µM; in test [8], above 25 µM.
Regarding `CCCCCCCCCCCC(=O)NCCCC[C@H](NC(=O)[C@H](CCCCN)NC(=O)[C@H](CCCCN)NC(C)=O)C(=O)N[C@@H](Cc1ccccc1)C(=O)N[C@@H](CCCCN)C(=O)N[C@@H](CCCCN)C(=O)N[C@H](C(=O)N[C@@H](CC(C)C)C(=O)N[C@@H](CCCCN)C(=O)N[C@@H](Cc1ccc(O)cc1)C(=O)N[C@@H](CC(C)C)C(N)=O)[C@@H](C)CC` [BP394, Ac-KKK(COC11H23)FKKILKYL-NH2], the MIC in test [1] was in the range of 6.2 to 12.5 µM; in test [2], 6.2 to 12.5 µM; in test [3], 12.5 to 25 µM; in test [4], 1.6 to 3.1 µM; in test [5] it was 1.6 to 3.1 µM; in test [6] it was 0.8 to 1.6 µM. Moreover, the minimal inhibitory concentration (MIC) fell in the range of 6.2 to 12.5 µM in test [7] and 12.5 to 25 µM in test [8].
`CCCCCCCCCCCC(=O)NCCCC[C@H](NC(=O)[C@H](Cc1ccccc1)NC(=O)[C@H](CC(C)C)NC(=O)[C@H](CCCCN)NC(=O)[C@H](CCCCN)NC(C)=O)C(=O)N[C@@H](CCCCN)C(=O)N[C@H](C(=O)N[C@@H](CC(C)C)C(=O)N[C@@H](CCCCN)C(=O)N[C@@H](Cc1ccc(O)cc1)C(=O)N[C@@H](CC(C)C)C(N)=O)[C@@H](C)CC` [BP396, Ac-KKLFK(COC11H23)KILKYL-NH2]: the MIC was above 25 µM in test [1]; above 25 µM in test [2]; above 25 µM in test [3]; 1.6 to 3.1 µM in test [4]; 3.1 to 6.2 µM in test [5]; 1.6 to 3.1 µM in test [6]. Besides, the MIC in test [7] was in the range of 6.2 to 12.5 µM; in test [8] it was 12.5 to 25 µM.
Consider `CCCCCCCCCCCC(=O)NCCCC[C@H](NC(=O)[C@H](CC(C)C)NC(=O)[C@H](CCCCN)NC(=O)[C@H](CCCCN)NC(C)=O)C(=O)N[C@@H](CCCCN)C(=O)N[C@@H](CCCCN)C(=O)N[C@H](C(=O)N[C@@H](CC(C)C)C(=O)N[C@@H](CCCCN)C(=O)N[C@@H](Cc1ccc(O)cc1)C(=O)N[C@@H](CC(C)C)C(N)=O)[C@@H](C)CC` [BP395, Ac-KKLK(COC11H23)KKILKYL-NH2], for which the MIC in test [1] was 3.1 to 6.2 µM; in test [2], 3.1 to 6.2 µM; in test [3] it was 12.5 to 25 µM; in test [4], 1.6 to 3.1 µM; in test [5], 1.6 to 3.1 µM; in test [6], 1.6 to 3.1 µM. In addition, the MIC in test [7] lay in the range of 6.2 to 12.5 µM; in test [8] it was 12.5 to 25 µM.
Regarding `CCCCCCCCCCCC(=O)NCCCC[C@H](NC(=O)[C@@H](NC(=O)[C@H](CCCCN)NC(=O)[C@H](CCCCN)NC(=O)[C@H](Cc1ccccc1)NC(=O)[C@H](CC(C)C)NC(=O)[C@H](CCCCN)NC(=O)[C@H](CCCCN)NC(C)=O)[C@@H](C)CC)C(=O)N[C@@H](CCCCN)C(=O)N[C@@H](Cc1ccc(O)cc1)C(=O)N[C@@H](CC(C)C)C(N)=O` [BP399, Ac-KKLFKKIK(COC11H23)KYL-NH2], the MIC is 3.1 to 6.2 µM in test [1]; 3.1 to 6.2 µM in test [2]; above 25 µM in test [3]; 1.6 to 3.1 µM in test [4]; 0.8 to 1.6 µM in test [5]; 3.1 to 6.2 µM in test [6]. In addition, the MIC in test [7] lay in the range of 6.2 to 12.5 µM; in test [8] it was 12.5 to 25 µM.
For the molecule `CCCCCC(=O)NCCCC[C@H](NC(=O)[C@H](CC(C)C)NC(=O)[C@@H](NC(=O)[C@H](CCCCN)NC(=O)[C@H](CCCCN)NC(=O)[C@H](Cc1ccccc1)NC(=O)[C@H](CC(C)C)NC(=O)[C@H](CCCCN)NC(=O)[C@H](CCCCN)NC(C)=O)[C@@H](C)CC)C(=O)N[C@@H](Cc1ccc(O)cc1)C(=O)N[C@@H](CC(C)C)C(N)=O` [BP376, Ac-KKLFKKILK(COC5H11)YL-NH2], the MIC in test [1] was in the range of 3.1 to 6.2 µM; in test [2], 12.5 to 25 µM; in test [3], 6.2 to 12.5 µM; in test [4], 6.2 to 12.5 µM; in test [5], 6.2 to 12.5 µM; in test [6] it was 3.1 to 6.2 µM. Further, the MIC lay in the range of 0.4 to 0.8 µM in test [7] and 3.1 to 6.2 µM in test [8].
`CCCC(=O)NCCCC[C@H](NC(=O)[C@H](CCCCN)NC(=O)[C@H](CCCCN)NC(C)=O)C(=O)N[C@@H](Cc1ccccc1)C(=O)N[C@@H](CCCCN)C(=O)N[C@@H](CCCCN)C(=O)N[C@H](C(=O)N[C@@H](CC(C)C)C(=O)N[C@@H](CCCCN)C(=O)N[C@@H](Cc1ccc(O)cc1)C(=O)N[C@@H](CC(C)C)C(N)=O)[C@@H](C)CC` [BP382, Ac-KKK(COC3H7)FKKILKYL-NH2]: the MIC was 6.2 to 12.5 µM in test [1]; 6.2 to 12.5 µM in test [2]; 6.2 to 12.5 µM in test [3]; 6.2 to 12.5 µM in test [4]; 6.2 to 12.5 µM in test [5]; 1.6 to 3.1 µM in test [6]. For the same molecule, the MIC in test [7] lay within 0.8 to 1.6 µM; in test [8], 3.1 to 6.2 µM.
Take `CCCCCC(=O)NCCCC[C@H](NC(=O)[C@H](CCCCN)NC(C)=O)C(=O)N[C@@H](CC(C)C)C(=O)N[C@@H](Cc1ccccc1)C(=O)N[C@@H](CCCCN)C(=O)N[C@@H](CCCCN)C(=O)N[C@H](C(=O)N[C@@H](CC(C)C)C(=O)N[C@@H](CCCCN)C(=O)N[C@@H](Cc1ccc(O)cc1)C(=O)N[C@@H](CC(C)C)C(N)=O)[C@@H](C)CC` [BP369, Ac-KK(COC5H11)LFKKILKYL-NH2]: the MIC in test [1] fell in the range of 3.1 to 6.2 µM; in test [2], 6.2 to 12.5 µM; in test [3], 6.2 to 12.5 µM; in test [4], 0.8 to 1.6 µM; in test [5], 3.1 to 6.2 µM; in test [6], 3.1 to 6.2 µM. Further, the MIC in test [7] was in the range of 0.4 to 0.8 µM; in test [8], 1.6 to 3.1 µM.
